Data as given in patent US20200261388A1, “USE AND METHOD OF L-ASPARTIC ACID beta-HYDROXAMATE IN PREPARING DRUGS FOR INHIBITING CHOROIDAL NEOVASCULARIZATION” (WENZHOU MEDICAL UNIVERSITY, priority 2019, published 2020).

Key:
visual functions = system: visual functions; design: species or system C57BL/6j male mice; details: mouse, in vivo
Procedure: The effect of intravenous injection of L-ABH on visual functions are shown in FIGS. 3A-3C, in which C57BL/6j male mice were intravenously injected 6 mg/kg of L-ABH at an age of two months, one day after the injection, visual behaviors were analyzed.

macrophages J774A.1 = experiment: Migration of macrophages J774A.1 co-cultured with TNFα-treated RPE; format: cell-based; details: L-ABH 0.125 mM pre-treatment of RPE 1.5 h, then TNFα 12 h; co-culture 12 h
Procedure: (§1) Using animal models of exAMD, in C57/B6 mice, fundus was irradiated with Krypton red laser (interval at 0.05 s, duration of 0.07 s, and power at 240 mW) to make CNV mice models. A serine racemase competitive inhibitor, L-aspartic acid β-hydroxamate (L-ABH), was injected intravenously at a dosage of 6 mg/kg at the day before laser, and at a dosage of 3 mg/kg at the third day after laser. At the seventh day after laser injury, stretched preparation was performed with choroid/retinal pigment epithelial cells (RPEs), which were stained with metaagglutinin GS-IB4 coupled with Alexa Fluor 594, and the volume of CNV was analyzed. And primary RPEs were utilized in vitro to study the inhibition of L-ABH on the production of VEGF and MCP-1 by RPEs which was induced with TNFα. Macrophages were co-cultured with RPEs to study L-ABH about pre-treating RPEs and inhibiting the migration of macrophages.
The results of L-ABH inhibiting the migration of macrophages under the induction of RPE treated with TNFα are shown in FIGS. 5A-5D, in which RPE was co-cultured with macrophages J774A.1 for 12 h. […] For each culture dish, nine visual fields were randomly selected under the light microscope to be counted, with the statistical analysis seen in FIG. 5D. **p<0.01, compared with the control group, # p<0.05, compared with TNFα treatment group.

[1] = system: retinal functions (B-wave of rod and cone cells); experiment: Electroretinographic analysis of retinal function after intravenous L-ABH; format: in vivo, C57BL/6J male mice; details: 6 mg/kg i.v., one day after injection, vs saline injection group
Procedure: The effect of intravenous injection of L-ABH on retinal functions is shown in FIGS. 2A-2D, in which C57BL/6J male mice were intravenously injected 6 mg/kg of L-ABH at an age of two months, one day after the injection, an electrographic analysis was performed on the retina. The amplitudes of B-wave in dark and bright views are shown in FIG. 2A, FIG. 2C, and FIG. 2B respectively, and the average values of which are analyzed by histograms in FIG. 2D.

primary RPEs = experiment: L-serine and D-serine in supernatants of primary RPE by HPLC; format: cell-based; details: L-ABH 0.0625-0.25 mM pre-treatment 1.5 h, then TNFα 500 unit/ml 12 h; supernatant
Procedure: Primary RPE was cultured in DMEM/F12 plus 20% FBS to a density of 70%, at which it was exchanged for DMEM/F12 plus 1% FBS, L-ABH (0.0625-0.25 mM), or after the control pre-treatment for 1.5 hours, it was exchanged for TNFα (500 unit/ml) to treat for 12 h, the supernatants were collected, and L-serine and D-serine in the supernatants were detected by high performance liquid chromatography. There were six samples in each group. The contents of L-serine and D-serine are shown with box charts in FIG. 4A, with **p<0.01, *p<0.05 showing that there was significant difference of D-serine between the treatment group and the control group. The ratio of L/D-serine was shown in FIG. 4B, with **p<0.01, *p<0.05 showing that there was significant difference between the control groups. In FIG. 4C-FIG. 4E, primary RPEs were co-cultured with macrophages J774A.1, primary RPEs were pretreated with L-ABH (0.125 mM) for 1.5 h, then treated with TNFα (500 unit/ml) for 12 h, with J774A.1 being cultured in the upper layer at the same time for 12 h, after which the supernatants cultured with RPEs were collected, and an enzyme-linked immunosorbent assay was used to detect the productions of MCP-1 (C), VEGF (D), and NO (E). (There were 7 samples for each group). In FIG. 4C, ***p<0.001, compared with the control group, **p<0.01, compared with TNFα treatment group. […]

[2] = system: primary RPEs induced with TNFα; experiment: Production of VEGF and MCP-1 by TNFα-induced primary RPE (ELISA, co-culture with J774A.1); format: cell-based; details: L-ABH 0.125 mM pre-treatment 1.5 h, then TNFα 500 unit/ml 12 h
Procedure: as §1
Primary RPE was cultured in DMEM/F12 plus 20% FBS to a density of 70%, at which it was exchanged for DMEM/F12 plus 1% FBS, L-ABH (0.0625-0.25 mM), or after the control pre-treatment for 1.5 hours, it was exchanged for TNFα (500 unit/ml) to treat for 12 h, the supernatants were collected, and L-serine and D-serine in the supernatants were detected by high performance liquid chromatography. There were six samples in each group. […]

[3] = system: laser-induced choroidal neovascularization; experiment: Laser-induced choroidal neovascularization (CNV) mouse model, intravenous L-ABH; format: in vivo, C57/B6 mice; details: i.v. 6 mg/kg the day before laser and 3 mg/kg third day after laser; analysed day 7 after laser; p=0.001
Procedure: as §1
The results of inhibiting the laser-induced choroidal neovascularization by intravenously injecting L-ABH are shown in FIGS. 1A-1E, wherein FIG. 1A is CNV produced by laser in 2-month-old wild-type mice. Injection of saline was used as the control group (Con, B); at the day before laser, L-ABH was injected intravenously (2 mg/kg), and 1 mg/kg (C) was injected 3 days after laser; or at the day before laser, L-ABH was injected intravenously (6 mg/kg), and 3 mg/kg (D) was injected 3 days after laser. […]

SMILES: N[C@@H](CC(=O)NO)C(=O)O [L-ABH, L-aspartic acid β-hydroxamate]
- retention time of mice in the black box (visual functions): no difference
- macrophage migration mediated with RPE induced with TNFα (macrophages J774A.1): significantly inhibited macrophage migration
- amplitude of B-wave from cone cells in a bright view [1]: no differences
- amplitude of B-wave from rod cells in a dark view [1]: no differences
- production of D-serine in primary RPEs (primary RPEs): decreased the production of D-serine
- ratio of L-serine/D-serine (primary RPEs): increased the ratio of L-serine/D-serine
- production of MCP-1 by RPE induced with TNFα [2]: significantly decreasing the production
- production of VEGF by RPE induced with TNFα [2]: significantly decreasing the production
- volume of CNV relative to saline control group [3]: 55%
